Test results: US11084826B2, “RSV antiviral pyrazolo- and triazolo-pyrimidine compounds” (Janssen Sciences Ireland Unlimited Company, priority 2015, dated 2021)
Values joined by “and” are separate entries in the source; they are usually repeats but may differ in a detail not shown here. Identical values can stand only once. Like-named read-outs stand apart in the source and are kept apart here.

Tests used:
[1] = test system: HeLa cells; test: Cytotoxicity in HeLa cells, ATP content measured with the ATPlite kit; format: cell-based
[2] = test system: rgRSV224 virus; test: Antiviral activity: inhibition of rgRSV224 (GFP-expressing RSV) replication in HeLa cells, GFP expression read-out; format: cell-based, respiratory syncytial virus (RSV); conditions: for RSV HELA pEC50: rgRSV224 virus (MOI=1) in HeLa cells, GFP read-out; for EC50: human respiratory syncytial virus, HeLa, read-out: RSV HELA pEC50, rgRSV224 virus (MOI=1) in HeLa cells, GFP read-out (converted)
Procedure, shortened: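 EC50 is the 50% inhibitory concentration for GFP expression, read by laser microscopy three days after rgRSV224 infection (MOI=1) of HeLa cells (3,000/well). Compounds were tested as 9 serial 4-fold dilutions at 0.05% DMSO, and cells were incubated at 37° C under 5% CO2.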

[3] = Cytotoxicity in HeLa cells, ATP content measured with the ATPlite kit; format: cell-based; conditions: human, TOX HELA pCC50

Row | SMILES | TOX HELA pCC50 [1] | RSV HELA pEC50 [2] | TOX HELA pCC50 ([1]; HeLa cells, cytotoxicity) | CC50 at 3 days [3] | melting point | EC50 [2]
1 | CCc1cc(C(=O)N2CCCCCC2C)nc2cc(-c3ccc(N(C)C)cc3)nn12 (stereo not shown) [Compound A2] | <4.60 | 5.52 |  |  |  | 
2 | CCc1cc(C(=O)N2CCCCCC2C)nc2cc(-c3ccccc3Cl)nn12 (stereo not shown) [Compound A3] | 4.40 | 5.45 |  |  |  | 
3 | CCc1cc(C(=O)N2CCCCCC2C)nc2cc(-c3ccc4[nH]c(=O)ccc4c3)nn12 (stereo not shown) [Compound A15] | <4.60 | 6.47 |  |  |  | 
4 | CCCC(C)N(CC)C(=O)c1cc(CC)n2nc(-c3ccccc3F)cc2n1 (stereo not shown) [Compound A16] | 4.45 | 5.57 |  |  |  | 
5 | CC1CCCCCN1C(=O)c1cc(N2CCCC2)n2nc(-c3ccc(N(C)C)cc3)cc2n1 (stereo not shown) [Compound A19] | 4.42 | 5.34 |  |  |  | 
6 | CCc1cc(C(=O)N2CCc3ccccc3C2C)nc2cc(-c3cc4cccnc4cc3F)nn12 (stereo not shown) [Compound A31] | <4.60 | 6.20 |  |  |  | 
7 | CCc1cc(C(=O)N2CCCCCC2C)nc2cc(-c3ccc(NC(=O)OCC4CCCN4)cc3F)nn12 (stereo not shown) [Compound C3] |  | 6.78 and 6.55 | <4.60 and 4.89 |  |  | 
8 | CCc1cc(C(=O)N2CCCCC[C@H]2C)nc2cc(-c3ccc(-c4nc(C(=O)O)ccc4F)cc3F)nn12 [Compound F20] | 4.30 | 7.07 |  |  |  | 
9 | CC(C)Cc1cc(C(=O)N2CCCCC[C@H]2C)nc2cc(-c3cccc(/C=C/C(=O)O)c3F)nn12 [Compound M29] |  |  |  | 67600 nM | 176 °C | 38.9 nM
10 | C[C@@H]1CCCCCN1C(=O)c1cc(-c2cnn(C)c2)n2nc(-c3ccc(/C=C/C(=O)O)cc3F)cc2n1 [Compound M30] |  |  |  | 28200 nM | 163 °C | 40.7 nM
11 | CCc1cc(C(=O)N2CCn3nccc3C2C)nc2cc(-c3ccc(/C=C/C(=O)O)cc3F)nn12 (stereo not shown) [Compound M41] |  |  |  | > 25100 nM | 225 to 230 °C | 794 nM
12 | CCc1cc(C(=O)N2CCn3c(C)ccc3C2C)nc2cc(-c3ccc(/C=C/C(=O)O)cc3F)nn12 (stereo not shown) [Compound M42] |  |  |  | > 25100 nM | 240 to 245 °C | 191 nM
13 | CCc1cc(C(=O)N2CCn3cccc3C2C)nc2cc(-c3ccc(/C=C/C(=O)O)cc3F)nn12 (stereo not shown) [Compound M43] |  |  |  | > 25100 nM | 255 to 260 °C | 47.9 nM
14 | CC1c2ccsc2CCN1C(=O)c1cc(C2CC2)n2nc(-c3cccc(/C=C/C(=O)O)c3F)cc2n1 (stereo not shown) [Compound M46] |  |  |  | 67600 nM | 265.43 °C | 5.01 nM
15 | CCc1cc(C(=O)N2CCCCCC2C)nc2cc(-c3ccc(/C=C/C(N)=O)cc3F)nn12 (stereo not shown) [Compound N1] |  |  |  | > 25100 nM | 140 to 145 °C | 129 nM
16 | C[C@@H]1c2ccsc2CCN1C(=O)c1cc(C2(C)CC2)n2nc(-c3ccc([C@@H]4C[C@H]4C(=O)O)cc3F)cc2n1 [Compound O21] |  |  |  | 55000 nM | 207.61 °C | 11 nM
17 | CCc1cc(C(=O)N2CCCCCC2C)nc2cc(-c3ccc(S(=O)(=O)N(C)C)cc3F)nn12 (stereo not shown) [Compound P1] |  |  |  | > 25100 nM | 120 °C | 2820 nM
18 | CCc1cc(C(=O)N2CCCCCC2C)nc2cc(-c3ccc(S(N)(=O)=O)cc3F)nn12 (stereo not shown) [Compound P2] |  |  |  | > 25100 nM | 229 °C | 646 nM
19 | CCc1cc(C(=O)N2CCCCCC2C)nc2cc(-c3ccc(S(=O)(=O)NC)cc3F)nn12 (stereo not shown) [Compound P3] |  |  |  | > 25100 nM | 116 °C | 692 nM
20 | CCc1cc(C(=O)N2CCCCCC2C)nc2cc(-c3ccc(CCC(=O)O)cc3F)nn12 (stereo not shown) [Compound Q1] |  |  |  | > 25100 nM | 125 to 130 °C | 537 nM
21 | CCc1cc(C(=O)N2CCCCCC2C)nc2cc(-c3ccc(CCC(N)=O)cc3F)nn12 (stereo not shown) [Compound R1] |  |  |  | > 25100 nM | 95 to 100 °C | 251 nM
22 | CCc1cc(C(=O)N2CCCCCC2C)nc2nc(-c3ccc(NC(=O)C4CC4)cc3F)nn12 (stereo not shown) [Compound T1] |  |  |  | > 100000 nM | 210 to 215 °C | 550 nM
23 | CCc1cc(C(=O)N2CCCCCC2C)nc2nc(-c3ccc(NC(=O)NCC4CCCO4)cc3F)nn12 (stereo not shown) [Compound U1] |  |  |  | > 100000 nM | 185 to 190 °C | 525 nM
24 | CCc1cc(C(=O)N2CCCCCC2C)nc2nc(-c3ccc(C(N)=O)cc3F)nn12 (stereo not shown) [Compound V1] |  |  |  | > 25100 nM | 215 to 220 °C | 1910 nM

Row | SMILES | TOX HELA pCC50 [1] | RSV HELA pEC50 [2] | TOX HELA pCC50 ([1]; HeLa cells, cytotoxicity) | CC50 at 3 days [3] | melting point | EC50 [2]
25 | CCc1cc(C(=O)N2CCCCC[C@H]2C)nc2cc(-c3ccc(-n4ccc(C(=O)O)n4)cc3F)nn12 [Compound W3] |  |  |  | 60300 nM | 207.63 °C | 107 nM
26 | CCc1cc(C(=O)N2CCCCC[C@H]2C)nc2cc(-c3ccc(N4CC[C@@H](C(=O)O)C4)cc3F)nn12 [Compound W6] |  |  |  | 69200 nM | 214.84 °C | 81.3 nM
27 | CCc1cc(C(=O)N2CCCCC[C@H]2C)nc2cc(-c3ccc(N4CC[C@H](C(=O)O)C4)cc3F)nn12 [Compound W7] |  |  |  | 70800 nM | 205.8 °C | 47.9 nM
28 | C[C@@H]1CCCCCN1C(=O)c1cc(C2CC2)n2nc(-c3ccc(-n4cc(C(=O)O)cn4)cc3F)cc2n1 [Compound W8] |  |  |  | 55000 nM | 232.32 °C | 77.6 nM
29 | C[C@@H]1CCCCCN1C(=O)c1cc(C2CCC2)n2nc(-c3ccc(-n4cc(C(=O)O)cn4)cc3F)cc2n1 [Compound W9] |  |  |  | 51300 nM | 142.16 °C | 46.8 nM
30 | C[C@@H]1CCCCCN1C(=O)c1cc(C2(C)CC2)n2nc(-c3ccc(-n4cc(C(=O)O)cn4)cc3F)cc2n1 [Compound W10] |  |  |  | 52500 nM | 239.85 °C | 30.9 nM
31 | CCc1cc(C(=O)N2CCCCC[C@H]2C)nc2cc(-c3ccc(N4CC=C(C(=O)O)CC4)cc3F)nn12 [Compound W11] |  |  |  | 58900 nM | 277.45 °C | 234 nM
32 | CCc1cc(C(=O)N2CCCCC[C@H]2C)nc2cc(-c3ccc(N4C[C@@H]5CC(C(=O)O)=C[C@@H]5C4)cc3F)nn12 [Compound W12] |  |  |  | 63100 nM | 252.19 °C | 204 nM
33 | CC(C)=Cc1cc(C(=O)N2CCCCC[C@H]2C)nc2cc(-c3ccc(N4CC[C@H](C(=O)O)C4)cc3F)nn12 [Compound W15] |  |  |  | 57500 nM | 189.89 °C | 51.3 nM
34 | CCc1cc(C(=O)N2CCCCC[C@H]2C)nc2cc(-c3ccc(N4CCC(C)(C(=O)O)C4)cc3F)nn12 (stereo partly shown) [Compound W17] |  |  |  | 58900 nM | 172.28 °C | 21.9 nM
35 | CCc1cc(C(=O)N2CCCCC[C@H]2C)nc2cc(-c3ccc(N4CCC(CO)(C(=O)O)C4)cc3F)nn12 (stereo partly shown) [Compound W18] |  |  |  | > 100000 nM | 276.58 °C | 81.3 nM
36 | C[C@@H]1c2ccccc2CCN1C(=O)c1cc(C2(C)CC2)n2nc(-c3ccc(-n4cc(C(=O)O)cn4)cc3F)cc2n1 [Compound W26] |  |  |  | > 100000 nM | 238.58 °C | 23.4 nM
37 | CCc1cc(C(=O)N2CCc3ccccc3[C@H]2C)nc2cc(-c3ccc(-n4cc(C(=O)O)cn4)cc3F)nn12 [Compound W27] |  |  |  | 46800 nM | 144.43 °C | 39.8 nM
38 | CCc1cc(C(=O)N2CCc3ccccc3[C@H]2C)nc2cc(-c3ccc(N4CC[C@H](C(=O)O)C4)cc3F)nn12 [Compound W28] |  |  |  | 51300 nM | 218.99 °C | 4.27 nM
39 | CCc1cc(C(=O)N2CCCCCN2C)nc2cc(-c3ccc(-n4cc(C(=O)O)cn4)cc3F)nn12 [Compound W32] |  |  |  | > 100000 nM | 268.79 °C | 219 nM
40 | C[C@@H]1c2ccccc2CCN1C(=O)c1cc(C2CC2)n2nc(-c3ccc(-n4cc(C(=O)O)cn4)cc3F)cc2n1 [Compound W33] |  |  |  | 57500 nM | 257.75 °C | 16.2 nM
41 | C[C@@H]1c2ccccc2CCN1C(=O)c1cc(C2(C)CC2)n2nc(-c3ccc(N4CC[C@H](C(=O)O)C4)cc3F)cc2n1 [Compound W34] |  |  |  | 43700 nM | 162.08 °C | 11.2 nM
42 | CCc1cc(C(=O)N2CCCCC[C@H]2C)nc2cc(-c3ccc(-n4cc(C(=O)O)c(Cl)n4)cc3F)nn12 [Compound W35] |  |  |  | > 25100 nM | 145.75 °C | 191 nM
43 | C[C@@H]1c2ccccc2CCN1C(=O)c1cc(C2CC2)n2nc(-c3ccc(N4CC[C@H](C(=O)O)C4)cc3F)cc2n1 [Compound W38] |  |  |  | 46800 nM | 214 °C | 5.75 nM
44 | CC1c2ccsc2CCN1C(=O)c1cc(C2CC2)n2nc(-c3ccc(-n4cc(C(=O)O)cn4)cc3F)cc2n1 (stereo not shown) [Compound W41] |  |  |  | > 25100 nM | 257.83 °C | 13.2 nM
45 | CCc1cc(C(=O)N2CCCCC[C@H]2C)nc2cc(-c3ccc(N4CC[C@](C)(C(=O)O)C4)cc3F)nn12 [Compound W49] |  |  |  | 53700 nM | 179.2 °C | 43.7 nM
46 | CCc1cc(C(=O)N2CCCCC[C@H]2C)nc2cc(-c3ccc(N4CC[C@@](C)(C(=O)O)C4)cc3F)nn12 [Compound W50] |  |  |  | 74100 nM | 110.2 °C | 44.7 nM
47 | C[C@@H]1CCCCCN1C(=O)c1cc(C2CC2)n2nc(-c3ccc(N4CC[C@H](C(=O)O)C4)cc3F)cc2n1 [Compound W51] |  |  |  | 69200 nM | 203.3 °C | 38.9 nM
